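Here, GI50 denotes the concentration required for 50% inhibition of growth. Definition used: TGI = concentration required for complete inhibition of growth.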
Tests used:
Experiment in all cases: NCI tumour cell line growth inhibition, 384-well format
[1] = tested on: 786-0 renal
[2] = tested on: NCI-H23 lung
[3] = tested on: OVCAR-3 ovarian
[4] = tested on: CCRF-CEM leukemia
[5] = tested on: EKVX NSCLC
[6] = tested on: SN12C renal
[7] = tested on: CAKI-1 renal
[8] = tested on: HOP-92 NSCLC
[9] = tested on: MDA-MB-468 breast
[10] = tested on: OVCAR-5 ovarian
[11] = tested on: SW-620 colon
[12] = tested on: UACC-62 melanoma
[13] = tested on: UO-31 renal
[14] = tested on: OVCAR-4 ovarian
[15] = tested on: HCT-116 colon
[16] = tested on: OVCAR-8 ovarian
[17] = tested on: DU-145 prostate
[18] = tested on: MCF7 breast
[19] = tested on: UACC-257 melanoma
[20] = tested on: ACHN renal
[21] = tested on: MDA-MB-435 melanoma
[22] = tested on: PC-3 prostate
[23] = tested on: SK-MEL-28 melanoma
[24] = tested on: MALME-3M melanoma
[25] = tested on: NCI-H226 lung
[26] = tested on: M14 melanoma
[27] = tested on: RPMI-8226 leukemia
[28] = tested on: SF-295 CNS
[29] = tested on: SNB-75 CNS
[30] = tested on: A549 NSCLC
[31] = tested on: HOP-62 NSCLC
[32] = tested on: LOX IMVI melanoma
[33] = tested on: KM12 colon
[34] = tested on: IGROV1 ovarian
[35] = tested on: HS 578T breast
[36] = tested on: A498 renal
[37] = tested on: U251 glioblastoma
[38] = tested on: SF-268 CNS
[39] = tested on: SK-OV-3 ovarian
[40] = tested on: SK-MEL-2 melanoma
[41] = tested on: NCI-H322M lung
[42] = tested on: MDA-MB-231 breast
[43] = tested on: RXF 393 renal
[44] = tested on: HT29 colon
[45] = tested on: NCI/ADR-RES ovarian
[46] = tested on: NCI-H522 lung
[47] = tested on: HCT-15 colon
[48] = tested on: T-47D breast
[49] = tested on: BT-549 breast
[50] = tested on: SF-539 CNS
[51] = tested on: K-562 leukemia

Question: `CC(=O)C1(O)Cc2c(O)c3c(c(O)c2C(OC2CC(N)C(O)C(C)O2)C1)C(=O)c1ccccc1C3=O` (stereo not given) was tested. Which GI50 [1] did it give?
Answer: The GI50 was 23.4 nM.

Question: What about the TGI [1] of the same compound?
Answer: The TGI was 112 nM.

Question: And the GI50 [2]?
Answer: The GI50 was 23.2 nM.

Question: And the TGI [2]?
Answer: The TGI was 90.1 nM.

Question: And the GI50 [3]?
Answer: The GI50 was 65.3 nM.

Question: What about the TGI [3] of the same compound?
Answer: The TGI was 257 nM.

Question: What about the TGI [4] of the same compound?
Answer: The TGI was 15.6 nM.

Question: And the GI50 [5]?
Answer: Its GI50 is 150 nM.

Question: What about the TGI [5] of the same compound?
Answer: Its TGI is 973 nM.

Question: What about the GI50 [6] of the same compound?
Answer: Its GI50 is 15.7 nM.

Question: And the TGI [6]?
Answer: The TGI was 59.7 nM.

Question: What about the GI50 [7] of the same compound?
Answer: Its GI50 is 30.9 nM.

Question: And the TGI [7]?
Answer: Its TGI is 169 nM.

Question: And the GI50 [8]?
Answer: The GI50 was 35.1 nM.

Question: What about the TGI [8] of the same compound?
Answer: The TGI was 265 nM.

Question: What about the GI50 [9] of the same compound?
Answer: Its GI50 is 14.3 nM.

Question: What about the TGI [9] of the same compound?
Answer: The TGI was 34.3 nM.

Question: What about the GI50 [10] of the same compound?
Answer: The GI50 was 44.7 nM.

Question: And the TGI [10]?
Answer: Its TGI is 242 nM.

Question: And the GI50 [11]?
Answer: The GI50 was 13.2 nM.

Question: What about the TGI [11] of the same compound?
Answer: Its TGI is 178 nM.

Question: What about the GI50 [12] of the same compound?
Answer: Its GI50 is 18 nM.

Question: And the TGI [12]?
Answer: The TGI was 123 nM.

Question: What about the GI50 [13] of the same compound?
Answer: The GI50 was 76 nM.

Question: And the TGI [13]?
Answer: Its TGI is 209 nM.

Question: What about the GI50 [14] of the same compound?
Answer: The GI50 was 178 nM.

Question: And the TGI [14]?
Answer: The TGI was 482 nM.

Question: What about the GI50 [15] of the same compound?
Answer: Its GI50 is 14.6 nM.

Question: And the TGI [15]?
Answer: Its TGI is 153 nM.

Question: What about the GI50 [16] of the same compound?
Answer: Its GI50 is 31.6 nM.

Question: What about the TGI [16] of the same compound?
Answer: The TGI was 145 nM.

Question: What about the GI50 [17] of the same compound?
Answer: The GI50 was 11.3 nM.

Question: What about the TGI [17] of the same compound?
Answer: The TGI was 136 nM.

Question: And the GI50 [18]?
Answer: The GI50 was 24.1 nM.

Question: What about the TGI [18] of the same compound?
Answer: The TGI was 225 nM.

Question: And the GI50 [19]?
Answer: The GI50 was 138 nM.

Question: What about the TGI [19] of the same compound?
Answer: The TGI was 296 nM.

Question: What about the GI50 [20] of the same compound?
Answer: Its GI50 is 21.3 nM.

Question: And the TGI [20]?
Answer: Its TGI is 89.6 nM.

Question: What about the GI50 [21] of the same compound?
Answer: Its GI50 is 78.6 nM.

Question: And the TGI [21]?
Answer: The TGI was 230 nM.

Question: What about the GI50 [22] of the same compound?
Answer: The GI50 was 60.5 nM.

Question: What about the TGI [22] of the same compound?
Answer: Its TGI is 214 nM.

Question: And the GI50 [23]?
Answer: The GI50 was 93.8 nM.

Question: What about the TGI [23] of the same compound?
Answer: Its TGI is 379 nM.

Question: And the GI50 [24]?
Answer: The GI50 was 54.6 nM.

Question: What about the TGI [24] of the same compound?
Answer: The TGI was 191 nM.

Question: What about the GI50 [25] of the same compound?
Answer: The GI50 was 25.7 nM.

Question: What about the TGI [25] of the same compound?
Answer: The TGI was 128 nM.

Question: And the GI50 [26]?
Answer: Its GI50 is 17.5 nM.

Question: What about the TGI [26] of the same compound?
Answer: The TGI was 114 nM.

Question: And the TGI [27]?
Answer: Its TGI is 19.1 nM.

Question: What about the GI50 [28] of the same compound?
Answer: Its GI50 is 19 nM.

Question: What about the TGI [28] of the same compound?
Answer: The TGI was 51.7 nM.

Question: And the GI50 [29]?
Answer: Its GI50 is 33.4 nM.

Question: And the TGI [29]?
Answer: Its TGI is 144 nM.

Question: What about the GI50 [30] of the same compound?
Answer: The GI50 was 13.8 nM.

Question: And the TGI [30]?
Answer: The TGI was 133 nM.

Question: And the GI50 [31]?
Answer: The GI50 was 13.3 nM.

Question: What about the TGI [31] of the same compound?
Answer: The TGI was 34.6 nM.

Question: And the GI50 [32]?
Answer: Its GI50 is 20.3 nM.

Question: And the TGI [32]?
Answer: Its TGI is 139 nM.

Question: And the GI50 [33]?
Answer: Its GI50 is 11.5 nM.

Question: And the TGI [33]?
Answer: Its TGI is 36.3 nM.

Question: What about the GI50 [34] of the same compound?
Answer: The GI50 was 125 nM.

Question: What about the TGI [34] of the same compound?
Answer: The TGI was 412 nM.

Question: And the GI50 [35]?
Answer: The GI50 was 11.8 nM.

Question: What about the TGI [35] of the same compound?
Answer: The TGI was 129 nM.

Question: What about the GI50 [36] of the same compound?
Answer: Its GI50 is 17.5 nM.

Question: And the TGI [36]?
Answer: The TGI was 146 nM.

Question: What about the GI50 [37] of the same compound?
Answer: Its GI50 is 20.3 nM.

Question: What about the TGI [37] of the same compound?
Answer: The TGI was 105 nM.

Question: What about the GI50 [38] of the same compound?
Answer: Its GI50 is 24.9 nM.

Question: What about the TGI [38] of the same compound?
Answer: Its TGI is 126 nM.

Question: What about the GI50 [39] of the same compound?
Answer: Its GI50 is 27.7 nM.

Question: And the TGI [39]?
Answer: Its TGI is 138 nM.

Question: What about the GI50 [40] of the same compound?
Answer: Its GI50 is 51.9 nM.

Question: And the TGI [40]?
Answer: Its TGI is 93.2 nM.

Question: And the GI50 [41]?
Answer: The GI50 was 190 nM.

Question: What about the TGI [41] of the same compound?
Answer: Its TGI is 572 nM.

Question: What about the GI50 [42] of the same compound?
Answer: The GI50 was 19.4 nM.

Question: What about the TGI [42] of the same compound?
Answer: The TGI was 106 nM.

Question: And the GI50 [43]?
Answer: The GI50 was 53.9 nM.

Question: What about the TGI [43] of the same compound?
Answer: Its TGI is 197 nM.

Question: What about the GI50 [44] of the same compound?
Answer: Its GI50 is 27.7 nM.

Question: What about the TGI [44] of the same compound?
Answer: The TGI was 106 nM.

Question: What about the GI50 [45] of the same compound?
Answer: The GI50 was 480 nM.

Question: And the TGI [45]?
Answer: Its TGI is 2000 nM.

Question: What about the GI50 [46] of the same compound?
Answer: Its GI50 is 29.6 nM.

Question: And the TGI [46]?
Answer: Its TGI is 162 nM.

Question: And the GI50 [47]?
Answer: Its GI50 is 17.8 nM.

Question: And the TGI [47]?
Answer: Its TGI is 103 nM.

Question: And the GI50 [48]?
Answer: Its GI50 is 42.1 nM.

Question: And the TGI [48]?
Answer: The TGI was 296 nM.

Question: What about the GI50 [49] of the same compound?
Answer: The GI50 was 20.1 nM.

Question: And the TGI [49]?
Answer: Its TGI is 94.4 nM.

Question: And the GI50 [50]?
Answer: Its GI50 is 13.5 nM.

Question: What about the TGI [50] of the same compound?
Answer: Its TGI is 75.5 nM.

Question: What about the GI50 [51] of the same compound?
Answer: The GI50 was 15 nM.

Question: What about the TGI [51] of the same compound?
Answer: Its TGI is 116 nM.
